Reference: patent publication US11845803B2, “Combination therapies for treatment of BCMA-related cancers and autoimmune disorders” (Fred Hutchinson Cancer Center, priority 2017, dated 2023)

Assays:
[1] = test system: myeloma cell lines (8226, U266B1, MM1.R, H929); assay: Surface BCMA expression on myeloma cell lines incubated with GSI, flow cytometry; assay type: cell-based, human
Procedure: (A) Cell surface BCMA was measured on four myeloma cell lines (8226, U266B1, MM1.R, H929) by flow cytometry with an anti-BCMA monoclonal antibody before, and 5 hours after (see diagrams), incubation of the myeloma cell lines with GSI RO4929097 in a range of concentrations from 0 μM (DMSO control) to 1.0 μM. (E) U266 myeloma cells were incubated for 1, 3, 5 and 24 hours in the presence of various concentrations of GSI RO429097 (0.01 μM, 0.1 μM and 1.0 μM) and evaluated for surface BCMA expression by flow cytometry. […] (F) Fold change of surface BCMA expression on cell lines (MM1R=triangle; U266=square; 8226=circle) cultured in 1 μM GSI over time. GSI was re-administered as a half media change every 2 days. Fold change in BCMA is defined as Treated (MFIBCMA-MFIiso)/Control (MFIBCMA-MFIiso). Data is representative of at least 2 independent experiments. To examine the effect of γ-secretase inhibition on BCMA levels on myeloma cells, γ-secretase inhibitor (GSI) RO4929097 was used. […] To examine the effect of GSI on surface BCMA expression kinetics, U266 myeloma cells were incubated for 1, 3, 5 and 24 hours in the presence of various concentrations of GSI RO429097 (0.01 μM, 0.1 μM and 1.0 μM) and evaluated for cell surface BCMA expression by flow cytometry. […] The upregulation persisted over 7 days of culture in 1.0 μM GSI (FIG. 3F). Next, the effect of removing GSI from MM cell culture was examined. […] Finally, the viability of the tested MM cell lines was not affected by addition of 1.0 μM RO429097 to culture (FIG. 3L).

[2] = test system: MM cell lines; assay: Viability of MM cell lines cultured in GSI, propidium iodide staining; assay type: cell-based, human; settings: 1.0 μM in culture
Procedure: (L) Viability of indicated MM-expressing cells as measured by propidium iodide staining of cell lines cultured in 1 μM GSI.
Next, the effect of removing GSI from MM cell culture was examined. […] Finally, the viability of the tested MM cell lines was not affected by addition of 1.0 μM RO429097 to culture (FIG. 3L).

[3] = test system: CD138+ primary myeloma cells; assay: Surface BCMA and other surface molecules on primary patient myeloma cells incubated with GSI, flow cytometry; assay type: cell-based, human
Procedure: (N) Fold change in BCMA on primary myeloma cells (n=7) cultured with vary amounts of GSI for 4 h. Primary and cell lines were cultured at 0.5×10^6 cells/mL. Fold change in BCMA is defined as Treated (MFIBCMA-MFIiso)/Control (MFIBCMA-MFIiso). Data is representative of 3 independent experiments with T cells derived from different donors. […] (R) CD138+ primary myeloma cells were enriched from patient bone marrow samples, incubated for 3 hours in the presence of various concentrations of GSI RO429097 (0.01 μM to 10 μM) and evaluated for surface BCMA expression by flow cytometry. BCMA mean fluorescence intensity (MFI) on tumor cells is presented as fold increase over that observed on tumor cells incubated without RO429097. There is an observed dose dependent upregulation of BCMA. The effect of GSI on BCMA expression was then tested on primary myeloma samples from patients. CD138^+ myeloma cells were enriched from patient bone marrow samples, incubated for 3 hours in the presence of various concentrations of GSI RO429097 (0.01 μM to 10 μM) and evaluated for surface BCMA expression by flow cytometry (FIGS. 3M and 3R). BCMA mean fluorescence intensity (MFI) on tumor cells is presented as fold increase over tumor cells incubated without RO4929097.

[4] = test system: primary human myeloma tumor cells; assay: BCMA-specific T-ChARM T cells co-cultured with primary myeloma cells in the presence of GSI (cytokines, proliferation); assay type: cell-based
Procedure: (A) IL-2 production by BCMA CAR-T cells (BCMA-specific T-ChARM C11 3ST-CD28 and BCMA-specific T-ChARM C11 3ST-41BB) or control CD19sh CAR (short spacer)-T cells co-cultured with primary human myeloma tumor cells for 24 hours alone or with various concentrations of GSI RO429097 (0.003 μM to 3.0 μM).
(B) IFN-γ production by BMCA T-ChARM T cells co-cultured with myeloma cells at various concentrations of RO429097.
(O) Intracellular staining showing IFN-γ production (y-axis) and CD8 expression (x-axis) by T-ChARM T cells of the present disclosure cultured with primary MM cells from 2 patients in the absence (0 μM; left panels) or presence (1 μM; right panels) of GSI RO4929097.
(P) IFN-γ production (geometric mean fluorescence intensity (gMFI)) by T-ChARM T cells of the present disclosure cultured with primary MM cells in the presence of the indicated concentration of RO4929097 (x-axis).
(Q) IFN-γ production (normalized MFI; y-axis) by T-ChARM T cells of the present disclosure cultured with primary MM cells in the presence of the indicated concentration of RO4929097 (x-axis).
(R) Proliferation of T-ChARM T cells of the present disclosure in the presence of primary MM cells that were untreated (grey shading) or treated with 1.0 μM GSI RO4929097.
To examine the effect of a GSI on CAR T cell activity against BCMA^+ multiple myeloma, IL-2 production by BCMA CAR-T cells (BCMA-specific T-ChARM C11 3ST-CD28 and BCMA-specific T-ChARM C11 3ST-41BB) or control CD19sh CAR (short spacer)-T cells was measured after co-culture with primary human myeloma tumor cells for 24 hours in media containing at various concentrations of GSI RO429097 (0.003 μM to 3.0 μM) (FIG. 4A).
Next, the effect of GSI on T cell functionality of T cells containing a BCMA-specific T-ChARM was examined.

[5] = test system: primary human T cells; assay: Primary human T cell viability in GSI, trypan blue dye exclusion; assay type: cell-based; settings: 0.01 μM to 100 μM; 24 hours
Procedure: (B) Primary human T cells were cultured in GSI RO4929097 at concentrations ranging from 0.01 μM to 100 μM and viability was measured by trypan blue dye exclusion after 24 hours. There was no effect of GSI, at any concentration, on T cell viability.

SMILES: CC(C)(C(=O)NCC(F)(F)C(F)(F)F)C(=O)N[C@@H]1C(=O)Nc2ccccc2-c2ccccc21 [RO4929097]
- persistence of surface BCMA upregulation in culture ([1]; 1.0 μM GSI, GSI re-administered every 2 days): ≥ 7 days
- surface BCMA on myeloma cell lines ([1]; GSI 0.001 μM to 1.0 μM): rapidly upregulated
- time of peak increase in surface BCMA expression ([1]; U266, 0.01-1.0 μM GSI): 5 h
- cell surface BCMA expression on U266 cells ([1]; U266, 1, 3, 5 and 24 hours, 0.01, 0.1 and 1.0 μM): increased in a dose-dependent manner
- surface BCMA levels following removal of GSI ([1]; after removal of 1.0 μM GSI): decreased
- viability of MM cell lines [2]: not affected
- surface BCMA (MFI, fold increase) on primary myeloma cells ([3]; 3 hours, 0.01 μM to 10 μM): dose-dependent upregulation
- levels of other cell surface molecules (CS1, CD86, PD-L1, CD80, CD38) ([3]; primary myeloma cells, various GSI concentrations): no effect
- IL-2 production by BCMA T-ChARM T cells ([4]; 24 hours co-culture, GSI 0.003 μM to 3.0 μM): dose dependent increase
- proliferation of CFSE-labeled BCMA-specific T-ChARM T cells ([4]; 3 days co-culture with primary myeloma cells): increased in a dose dependent manner
- IFN-γ production and CD8 expression by co-cultured T-ChARM T cells ([4]; GSI treatment of primary myeloma tumor samples): greatly improved
- IFNγ production by BCMA T-ChARM T cells ([4]; co-culture with myeloma cells, various GSI concentrations): increased
- proliferation of T-ChARM T cells ([4]; primary MM cells treated with 1.0 μM GSI vs untreated): increased proliferation
- GSI concentration at which effects on T-ChARM T cell IFN-γ were seen ([4]; primary myeloma tumor samples): ≥ 0.1 µM
- T cell viability [5]: no effect
